# Reference: a melting point compilation (Tetko et al.; mined from patent text by program, amines drawn as free bases though some values may be those of a salt)
row,Structure (SMILES),melting point
1,COc1ccc(-c2cnc3cc4cn(CCOC(C)=O)nc4cc3n2)cc1F,175 to 178 °C
2,CC(C)(C)c1cc(C(=O)OCCC(=O)Oc2ccc(Cl)c(N)c2)cc(C(C)(C)C)c1O,122 to 124 °C
3,CN(C)CC1CCCCN1C(=O)c1ccc(-c2[nH]nc3c2C(=O)c2c(NC(=O)NN4CCOCC4)cccc2-3)s1 (stereo unspecified),> 300 °C
4,CC/C(=C(\c1ccc(/C=C/C(=O)O)cc1)c1ccc(OC(=O)CCC(F)(F)F)cc1)c1ccccc1,162 to 163 °C
5,CN(C)CC1CCc2c(c3cc(C(N)=O)ccc3n2C)C1=O (stereo unspecified),171 to 173 °C
6,Cc1ccc(-c2cc(Cl)c3ccc(C)cc3n2)cc1,110 to 111 °C
7,CCOC(=O)C1=Cc2cc(C#N)ccc2NC1C(F)(F)F (stereo unspecified),211 to 212 °C
8,OC1CSC(Oc2cccc(-c3cc(Cl)ccn3)c2)C(O)C1O (stereo unspecified),97 to 105 °C
9,Nc1cc(Br)nc(Cl)c1OC(F)F,138 to 140 °C
10,CC(C)(C)C(=O)SC[C@H](NC(=O)C(C)(C)S)C(=O)O,115 to 117 °C
11,Cc1c(-c2ccc(O)cc2)n(Cc2ccc(OCCN3C(C)CCCC3C)cc2)c2ccc(O)cc12 (stereo unspecified),114 to 121 °C
12,COC(=O)NC1CCc2ccc(Cl)cc2C1 (stereo unspecified),99 to 101 °C
13,COc1cc(-c2cc(C(C)C)nn2C)cc2oc(=O)c(C)c(C)c12,125 to 126 °C
14,COc1ccc(C=O)cc1OCc1ccc2ccccc2c1,80 °C
15,COc1cc2c3ccc(OC)c(OC)c3n(S(=O)(=O)c3cc(Cl)ccc3Cl)c2cc1OC,221 to 224 °C
16,CC(=O)NC(C)(C)c1ccc(CCl)cc1,101 to 103 °C
17,CC(=O)Nc1ccc([N+](=O)[O-])s1,226 °C
18,CN1CCC(CCCOc2cc3ncnc(Nc4cccc(Br)c4)c3cc2N)CC1,191 to 198 °C
19,CC(=O)Nc1ccc(C2=NNC(=O)C2)cc1,254 to 258 °C
20,NS(=O)(=O)c1cc2ccc(O)cc2o1,185 to 187 °C
21,CCN1CCN(C(=O)c2cc(N)cc(C(F)(F)F)c2)CC1,104 °C
22,Clc1c(-c2ccccc2)noc1NCC#CI,133 to 135 °C
23,CCCCCCCCCCCCCCCCCCCCCC(=O)Nc1ccc(NC(=O)NS(=O)(=O)c2ccc3ccccc3c2)cc1,179 °C
24,COC(=O)C1=Cc2cc(-c3ccc(OC(C)C)cc3)ccc2S(=O)(=O)CC1,140 to 142 °C

row,Structure (SMILES),melting point
1,CCCCc1nc2cccc(C)c2c(=O)n1C1CCC(=O)NC1=O (stereo unspecified),190 to 192 °C
2,O=C(O)CNC(=O)C=C(c1ccc(Cl)cc1)c1ccc(Cl)cc1,166 to 168 °C
3,COC(=O)CCc1cc2cc(C(F)(F)F)ccc2[nH]1,106 to 108 °C
4,COc1cc(C=CC(=O)c2ccccc2)cc(C(F)(F)F)c1O,166 to 168 °C
5,COc1cc(C(=O)Nc2nn(-c3ccccc3)cc2C=O)ccc1OCc1nc(-c2ccccc2)oc1C,234 to 235 °C
6,CCCCOc1c(CNC(=O)OCC2c3ccccc3-c3ccccc32)n(CC(C)C)c(=O)c2ccc(-c3nc(C)c(C(=O)OCC)s3)cc12,203 to 204 °C
7,COc1ccc(CC2(C)CN(C(c3ccccc3)c3ccccc3)CCN2C)cc1OC (stereo unspecified),102 °C
8,O=c1cc(SCc2ccccc2)cco1,105 to 106 °C
9,O=c1ccc(C(c2ccccc2)c2ccccc2)n[nH]1,161 to 162 °C
10,COc1ccc(Cl)cc1N1C(=O)NC(=O)C1c1ccccc1 (stereo unspecified),200 °C
11,Cc1ccc2c(c1)C(=O)N(Nc1ccccc1)C2=O,168 to 170 °C
12,Cc1ccc(C)c(OCCCC(C)(C)C(=O)Nc2cccc(-c3nnc(C)o3)c2)c1,90 to 92 °C
13,CCC1=NNC(C)=C(C(=O)OCc2ccco2)C1c1cccc([N+](=O)[O-])c1 (stereo unspecified),152 °C
14,O=C(O)C1=C(Sc2ccccc2)CC2CC(=O)C12 (stereo unspecified),213 to 215 °C
15,Cc1cccc(S(=O)(=O)n2ccnc2)c1C#N,93 to 95 °C
16,NNP(=S)(Oc1ccccc1)Oc1ccccc1,59 to 61 °C
17,O=C(O)c1cn2c3c(cc(F)cc3c1=O)C1CCCCC12 (stereo unspecified),281 to 282 °C
18,COC(=O)C1=C(CF)NC(C)=C(C(=O)OC(C)C)C1c1c(F)cccc1C(F)(F)F (stereo unspecified),82 to 84 °C
19,N#Cc1cccc(-c2cc(-c3ccc(C#N)cc3[N+](=O)[O-])no2)c1,235 to 238 °C
20,O=c1nc(-c2ccnc(C3CNCCO3)c2)sc2ccccc12 (stereo unspecified),157 to 158 °C
21,CC(=O)Nc1cc(C2=NNC(=O)NC2C)ccc1Cl (stereo unspecified),251 to 253 °C
22,Cc1noc(Cc2ccccc2Nc2c(Cl)cccc2Cl)n1,93.5 to 94.5 °C
23,O=[N+]([O-])c1oc2ccc(CCO)cc2c1-c1ccccc1,169 to 173 °C
24,COC(=O)c1cc(NC(C)=O)ccc1O,147 to 148 °C

row,Structure (SMILES),melting point
1,O=c1[nH]c2ccc(C3=NOC(CN4CCC(O)(Cc5ccc(F)cc5)CC4)C3)cc2o1 (stereo unspecified),195 to 204 °C
2,CS(=O)c1ccccc1-c1cc2[nH]c3ccc(O)cc3c2c2c1C(=O)NC2=O (stereo unspecified),321 to 323 °C
3,O=[N+]([O-])c1cccc(NC(=S)NCc2cccnc2)c1,159 °C
4,O=C1O[C@H](C(Cl)(Cl)Cl)N2CCC[C@@]12Cc1ccccc1,75 to 77 °C
5,O=C(O)[C@H]1C[C@@H](C(=O)O)c2c(Cl)cc(Cl)cc2N1 (relative stereo),225 to 227 °C
6,C[C@@H]1N=C(c2ccccc2Cl)c2c(ccc(N)c2Br)N(C)C1=O,243 °C
7,COC(=O)c1nc(Cl)n2c1CN=C(c1ccccc1Cl)c1cc(Cl)ccc1-2,200 to 202 °C
8,CN1CC[C@@H](c2cc(Cl)ccc2O)[C@@H]1c1ccccc1I (relative stereo),123 °C
9,O=C1c2ccccc2C(OCC2CO2)N1c1cccc(Cl)c1 (stereo unspecified),170 °C
10,O=C(CCCc1ccccc1)NCC(=O)N1c2ccccc2N(Cc2ccccc2)C(=O)[C@H]2CCC[C@H]21 (relative stereo),219 to 221 °C
11,CCOC(=O)COc1cccc(-c2cc(O)c(SCCc3ccccc3)c(=O)o2)c1,116 to 119 °C
12,CC(C)(C)c1cc(I)c2oncc2c1,106 to 109 °C
13,Cc1cc(C(O)(C=Cc2ccc(Cl)cc2)C(F)(F)F)ccc1NC(=O)c1cccc(I)c1C(=O)NC(C)C (stereo unspecified),65 to 75 °C
14,O=C(NCc1ccc(Br)cc1)c1cn(N2CCOCC2)c2ccc(CN3CCOCC3)cc2c1=O,200 to 202 °C
15,CC(C(N)=O)c1ccc(Oc2ccc(F)cc2F)cc1 (stereo unspecified),107 to 110 °C
16,Cc1nc(N)c2ncn(CCOc3ccccc3)c2c1C,197 to 199 °C
17,c1ccc(CC23CCN(CC2)CC3)cc1,48 °C
18,CCOC(=O)Nc1nc(C)c(-c2nc3ccccc3c(=O)n2-c2cccc(Cl)c2)s1,262 to 263 °C
19,COc1cc(Nc2nccc(-c3sc(NCCc4ccccc4)nc3C)n2)cc(OC)c1OC,184 to 186 °C
20,O=C(O)C1=C(c2ccccc2)c2cc(Br)ccc2CO1,205 to 206 °C
21,CC(C)OC(=O)c1ccc(OCc2ccccc2)cc1,62 to 63 °C
22,CCCn1c(=O)c2[nH]c(-c3cc(C)n(CC(=O)Nc4ccc(OC)cc4)n3)nc2n(CCC)c1=O,293 to 296 °C
23,CCC1c2cc(F)ccc2-c2ccccc2N1C(=O)c1ccc(O)cc1F (stereo unspecified),109 to 111 °C
